# Laboratory results published in patent US9258954B2, “Plant having enhanced resistance to environmental stress” (RIKEN, priority 2011, dated 2016).
# System: Arabidopsis thaliana L. wild strain (Col-0)
# Conditions: 10 mM aqueous acetic acid applied to soil in pot for 9 days; compared to plant without treatment and plant treated with 0.5 mM acetic acid; FIG. 19
# Procedure: hda6 mutant strain (axe 1-5 or sil1) and a parent strain or wild strain thereof were grown in pots at 22° C. under the conditions of 16 hours in the light and 8 hours in the dark for 3 weeks. Thereafter, water supply was terminated and the cultivation was continued at 22° C. and a humidity of 40% under the conditions of 16 hours in the light and 8 hours in the dark for about 2 weeks. In this manner, drought stress was gently given to the strains. After water was supplied again, the strains were grown at 22° C. under the conditions of 16 hours in the light and 8 hours in the dark for 5 days. The number of plants which recovered the growth was counted to determine a survival rate. The experiment was repeated three times using 40 plants per strain per experiment to calculate an average and standard deviation for the survival rate.
smiles,measurement,value
CC(=O)O [acetic acid],drought-stress resistance (survival after drought-stress resistance test),remarkably strong drought-stress resistance
